Results from PubChem BioAssay (NCI).
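Growth conditions: 96-well plates. Treatment: test compound, 48 hours, 5 concentrations. Analysis: linear interpolation between bracketing concentrations; unreached endpoints set to highest concentration. GI50 marks 50% less growth. The concentration for full growth arrest is given as TGI.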

What was measured:
Experiment in all cases: DTP human tumour cell line panel, 48 h; in the data active = GI50 below about 0.43 µM; inactive = the rest
[1] = test system: CCRF-CEM leukemia
[2] = test system: HCT-15 colon
[3] = test system: IGROV1 ovarian
[4] = test system: MDA-MB-435
[5] = test system: RXF 393 renal
[6] = test system: SF-539 CNS
[7] = test system: SK-MEL-5 melanoma
[8] = test system: SW-620 colon
[9] = test system: DMS 114 small cell lung
[10] = test system: DMS 273 small cell lung
[11] = test system: LXFL 529 NSCLC

Nc1nc(N)c2nc3c(nc2n1)CCCCCCCCCC3
active: GI50 [3] 0.421 µM
inactive: GI50 [1] 6.24 µM | GI50 [2] 0.891 µM | GI50 [4] 0.577 µM | GI50 [5] 4.12 µM | GI50 [6] 5.69 µM | GI50 [7] 0.652 µM | GI50 [8] 0.553 µM
> 100 µM: TGI [1] | TGI [2] | TGI [3] | TGI [4] | TGI [5] | TGI [6] | TGI [7] | TGI [8]

O=c1cccc(-c2cccc(=O)[nH]2)[nH]1
> 100 µM: TGI [1] | TGI [9] | TGI [10] | TGI [2] | TGI [3] | TGI [11] | TGI [5] | TGI [6] | TGI [7] | TGI [8]

CCN1C(=NCCO)NS(=O)(=O)c2ccccc21
> 100 µM: TGI [1] | TGI [2] | TGI [3] | TGI [4] | TGI [5] | TGI [6] | TGI [7] | TGI [8]

O=Cc1ccc(-c2ccc(-c3nc4ccccc4s3)cc2)s1
> 100 µM: TGI [2] | TGI [3] | TGI [4] | TGI [5] | TGI [6] | TGI [7] | TGI [8]
90.7 µM: TGI [1]
inactive: GI50 [1] 26.5 µM | GI50 [2] 39.8 µM | GI50 [3] 55.8 µM | GI50 [4] 56.2 µM | GI50 [5] > 100 µM | GI50 [6] 30.7 µM | GI50 [7] 27.1 µM | GI50 [8] 56.4 µM

NC(=O)CC(N=Cc1nc(-c2ccccc2)oc1O)C(=O)O (stereo not drawn)
> 100 µM: TGI [1] | TGI [9] | TGI [10] | TGI [2] | TGI [3] | TGI [11] | TGI [5] | TGI [6] | TGI [7] | TGI [8]

O=C(NCCCl)SCCO
> 100 µM: TGI [1] | TGI [9] | TGI [10] | TGI [2] | TGI [3] | TGI [11] | TGI [5] | TGI [6] | TGI [8]

CCC1(CN(C)C)CC/C(=C\c2ccc(OC)c(OC)c2)C1=O (stereo not drawn)
> 100 µM: TGI [1] | TGI [9] | TGI [10] | TGI [2] | TGI [3] | TGI [11] | TGI [5] | TGI [6] | TGI [7] | TGI [8]

COc1cccc(N2C(=O)C3C4C=C5c6ccccc6N(c6ccccc6)C5(C3C2=O)[C@H]2C(=O)N(c3cccc(OC)c3)C(=O)[C@@H]42)c1 (stereo partly drawn)
> 100 µM: TGI [1] | TGI [9] | TGI [10] | TGI [2] | TGI [3] | TGI [11] | TGI [5] | TGI [6] | TGI [7] | TGI [8]

Cc1c2c(c(C)c3c1[nH]c1ccccc13)CN(C)CC2
28.5 µM: TGI [9]
28.2 µM: TGI [11]
> 100 µM: TGI [1] | TGI [3]
27.6 µM: TGI [6]
34.3 µM: TGI [10]
31 µM: TGI [2]
34.6 µM: TGI [5]
28.6 µM: TGI [8]
26.1 µM: TGI [7]

NC(CSSCC(N)C(=O)O)C(=O)O (stereo not drawn)
> 100 µM: TGI [1] | TGI [2] | TGI [3] | TGI [4] | TGI [5] | TGI [6] | TGI [7] | TGI [8]
inactive: GI50 [1] > 100 µM | GI50 [2] > 100 µM | GI50 [3] > 100 µM | GI50 [4] > 100 µM | GI50 [5] > 100 µM | GI50 [6] > 100 µM | GI50 [7] > 100 µM | GI50 [8] > 100 µM

CN(CCCCCl)P(=O)(OCc1ccc([N+](=O)[O-])o1)OCC1OC(n2cnc([N+](=O)[O-])c2N)C(O)C1O (stereo not drawn)
> 100 µM: TGI [1] | TGI [2] | TGI [3] | TGI [4] | TGI [5] | TGI [6] | TGI [7] | TGI [8]
inactive: GI50 [1] > 100 µM | GI50 [2] > 100 µM | GI50 [3] > 100 µM | GI50 [4] > 100 µM | GI50 [5] > 100 µM | GI50 [6] > 100 µM | GI50 [7] 37 µM | GI50 [8] > 100 µM

COC(=O)Cc1cc(=O)[nH]c2c1C(=O)CCC2
> 100 µM: TGI [1] | TGI [2] | TGI [3] | TGI [11] | TGI [5] | TGI [6] | TGI [7] | TGI [8]

Cc1ccc(S(=O)(=O)N/N=C/C(C)C)cc1
> 100 µM: TGI [1] | TGI [9] | TGI [10] | TGI [2] | TGI [3] | TGI [11] | TGI [5] | TGI [6] | TGI [7] | TGI [8]

Cc1ccc(C2NC(=O)c3ccccc3N2)c(C)c1 (stereo not drawn)
5.15 µM: TGI [6]
> 100 µM: TGI [1] | TGI [3] | TGI [8]
> 39.5 µM: TGI [7]
> 77 µM: TGI [2]
1.19 µM: TGI [4]
> 76.2 µM: TGI [5]

COCCOCCOCc1n(Cc2ccc3ccccc3n2)c2ccccc2[n+]1Cc1ccc2ccccc2n1
52 µM: TGI [2]
9.7 µM: TGI [5]
10.8 µM: TGI [4]
13.6 µM: TGI [6]
17.2 µM: TGI [8]
16 µM: TGI [1]
active: GI50 [4] 0.387 µM | GI50 [7] 0.388 µM
1.48 µM: TGI [7]
inactive: GI50 [1] 1.78 µM | GI50 [2] 15.8 µM | GI50 [3] 0.645 µM | GI50 [5] 1.23 µM | GI50 [6] 0.852 µM | GI50 [8] 2.03 µM
11.8 µM: TGI [3]

CC(=O)c1ccc(NC(=O)COC(=O)c2cccc3c(=O)c4ccccc4[nH]c23)cc1
> 100 µM: TGI [1] | TGI [9] | TGI [3] | TGI [11] | TGI [5] | TGI [7] | TGI [8]
33.9 µM: TGI [6]

O=[N+]([O-])c1cc2no[n+]([O-])c2cc1N1CCCCC1
3.29 µM: TGI [5]
11.9 µM: TGI [2]
> 20.1 µM: TGI [6]
41.7 µM: TGI [7]
8.83 µM: TGI [3]
> 100 µM: TGI [1] | TGI [8]
9.44 µM: TGI [4]

OCCN(CCO)c1cccc(N(CCO)CCO)n1
> 100 µM: TGI [1] | TGI [9] | TGI [10] | TGI [2] | TGI [11] | TGI [5] | TGI [7] | TGI [8]

COc1cc2ccnc3c(=C(SC)SC)c(=O)c(c1OC)c23
29.8 µM: TGI [2]
47.5 µM: TGI [3]
36 µM: TGI [9]
26.6 µM: TGI [5]
31 µM: TGI [8]
17 µM: TGI [1]
33 µM: TGI [6]
16.5 µM: TGI [11]
30.4 µM: TGI [10]

O=C1OC(=O)C2C3C=CC(C12)C1C2C=CC2C31 (stereo not drawn)
> 100 µM: TGI [1] | TGI [10] | TGI [3] | TGI [11] | TGI [5] | TGI [6] | TGI [8]
